# In patent publication US7700611B2, “Synthesis and crystalline forms of NPY5 antagonist” (Merck Sharp & Dohme Corp., priority 2005, dated 2010):
# Assay: Thermodynamic stability of crystalline polymorphs (enantiotropic transition, storage)
# Type: physicochemical
# Conditions: for enantiotropic transition temperature between Form A and Form C: free base polymorphs; for thermodynamic stability of the crystalline form: relative to other crystalline forms of Compound I, temperature range as stated; for solid form stability at room temperature / on storage: room temperature (22° C.)
enantiotropic transition temperature between Form A and Form C,SMILES,thermodynamic stability of the crystalline form,solid form stability at room temperature / on storage
approximately 81 °C,"O=C1O[C@]2(CC[C@H](C(=O)Nc3ccn(-c4ccccc4F)n3)CC2)c2cnccc21 [Form A, trans-N-[1-(2-fluorophenyl)-3-pyrazolyl]-3-oxospiro[6-azaisobenzofuran-1(3H),1′-cyclohexane]-4′-carboxamide]",most thermodynamically stable crystalline form of compound (I) above 81 °C,instability
approximately 81 °C,"O=C1O[C@]2(CC[C@H](C(=O)Nc3ccn(-c4ccccc4F)n3)CC2)c2cnccc21 [Form C, trans-N-[1-(2-fluorophenyl)-3-pyrazolyl]-3-oxosiro[6-azaisobenzofuran-1(3H),1′-cyclohexane]-4′-carboxamide]",most thermodynamically stable crystalline form of Compound I below 81 °C,not subject to transforming to another crystal form
